# Source: paper PMC5522084, “Eg5 inhibitor YL001 induces mitotic arrest and inhibits tumor proliferation” (Oncotarget, 2017)
# Like-named read-outs stand apart in the source and are kept apart here.
# Legend:
# 786-O = test: Antiproliferation assay (Alamar Blue), 786-O; type: cell-based; settings: Homo sapiens, 786-0, renal cancer, read-out: EC50 of YL001
# Description: (§1) Cytotoxic activities of the compounds of interest were investigated with human cancer cell lines using the Alamar Blue assay. Cells (5 × 10^3 cells/well) were seeded into 96-well plates (Corning, 3603). Various sample concentrations (compounds of interest) were added to each well in duplicate, and incubated at 37°C with 5% CO2 for two days such that cells were in the exponential growth phase at the time of drug addition. Ten microliters of the Alamar Blue Solution (Invitrogen, Alamar Blue) were added to each well and incubated at 37°C for up to 2 hours in a humidified, 5% CO2 atmosphere. After incubation, florescence was measured using a microplate reader (Tecan) at an excitation wavelength of 540 nm and emission of 590 nm. Each inhibitory concentration was measured in triplicate, and averaged data points ± SD are shown. Statistical analysis was carried out with GraphPad Prism 5 and the fifty-percent effective concentration is expressed as EC50.
# A549 = test: Antiproliferation assay (Alamar Blue), A549; type: cell-based; settings: Homo sapiens; A549, lung cancer; read-out: EC50 of YL001
# Description: as §1
# [1] = Dose range testing in healthy mice without tumor; type: in vivo; settings: healthy B6 mice without tumor; taking into consideration the solubility
# K562 = test: Antiproliferation assay (Alamar Blue), K562; type: cell-based; settings: Homo sapiens; K562, leukemia; read-out: EC50 of YL001
# Description: as §1
# Eg5 = Eg5 (Homo sapiens, UniProt P52732); test: Inhibition of Eg5 ATPase activity; type: biochemical; settings: read-out: Enzyme EC50
# Description: All experiments were performed as previously described. Data were analyzed using GraphPad Prism 5 and Microsoft Excel to obtain EC50 values. […] Each inhibitory concentration was measured in triplicate, and averaged data points ± SD are shown.
# HeLa cells [2] = test: Colony formation; type: cell-based; settings: Homo sapiens, exposed 24 hours, cultured 10 days
# Description: HeLa cells (5 × 10^2 cells/well) were seeded into 6-well plates and were treated with a series of gradient concentrations of YL001 for 24 hours, followed by washing and continual culture for 10 days. DMSO was used as a negative control, and STLC was used as a positive control. Cells were fixed with ethanol for more than 30 minutes and dyed with crystal violet for more than 30 minutes. Clones were counted with OpenCFU [54].
# HT1080 = test: Antiproliferation assay (Alamar Blue), HT1080; type: cell-based, Human; settings: read-out: EC50 of YL001
# Description: as §1
# [3] = test system: human and rodent cancer cell lines; test: Antiproliferative activity over the panel of 15 cancer cell lines; type: cell-based; settings: 15 cell lines tested, read-out: EC50 values predominantly in the range
# Description: as §1
# B16 melanoma xenograft = B16 melanoma xenograft model; type: in vivo
# Description: B16 cells (1 × 10^6 cells) were inoculated s.c. into 6-week old C57BL/6 mice. Tumor volume was calculated as: V = 1/2× L (long axis)×W^2 (short axis). When the volume of tumor was between 50 to 100 mm^3, YL001 was administered i.p. daily on days 1 to 10 at 200 mg/kg. Doses and schedules were determined by tolerance studies. Mice were kept under specific pathogen-free conditions, and all animal experiments were approved by the Committee on Animal Research at our institute.
# Vehicle (10% (v%) N,N-Dimethylacetamide (DMAC) in 200 μL olive oil per 20 g mouse) was administered daily i.p. as a control on days 1 to 10. Drug efficiency was expressed as the ratio of the mean experimental V/V0 value to that of the control group [treated versus control (T/C) ratio], where V is the tumor volume on the day of evaluation and V0 is the tumor volume on the day of initial treatment with the drug. Drug efficiency was also evaluated by median survival. All statistical analysis was performed using Graphpad Prism 5.
# 4T1/6TG = test: Antiproliferation assay (Alamar Blue), 4T1/6TG; type: cell-based; settings: 6TG resistant mouse breast cancer, read-out: EC50 of YL001
# A2780/taxol = test: Antiproliferation assay (Alamar Blue), A2780/taxol; type: cell-based; settings: Homo sapiens, taxol resistant ovarian cancer, read-out: EC50 of YL001
# Description: as §1
# Pharmacokinetic study = type: in vivo; settings: BALB/c nude, mouse, plasma, ip; 200 mg/kg intraperitoneally, single dose, HeLa xenograft nude mice
# Description: A HPLC-MS/MS method was developed for single-dose pharmacokinetic (PK) study of YL001 in HeLa xenograft BALB/c nude mice. YL001 was administered intraperitoneally at a dose of 200 mg/kg. Blood samples were then collected by enucleating eyeballs at 0.083, 0.167, 0.333, 0.5, 1, 2, 6, 12, 24 hours in heparinized polypropylene tubes. Three mice were sacrificed at each time point. Samples were centrifuged immediately at 4000 r/min for 20 min to separate plasma. The final sample for HPLC-MS/MS detection by QTRAP 6500 (AB Sciex, USA) was a mixture (plasma: H2O: methanol = 1:1:8). All individual data were pooled together to further perform PK analysis. DAS 2.1.2 were used to estimate PK parameters by non-compartmental analysis.
# CNE-2Z = test: Antiproliferation assay (Alamar Blue), CNE-2Z; type: cell-based; settings: Homo sapiens, CNE2Z, nasopharyngeal cancer, read-out: EC50 of YL001
# Description: as §1
# HeLa cells [4] = test: Monopolar spindle phenotype, high content imaging; type: cell-based; settings: Homo sapiens, 8 hours, analyzed with Columbus, read-out: EC50 for monopolar spindles
# Description: HeLa cells (5 × 10^3 cells/well) were seeded in 96-well plates (Corning, 3603). Drugs were diluted appropriately in medium from 10 mM stocks in 100% DMSO and added to the cells. Following 8 hours incubation with drugs, cells were fixed with 4% paraformaldehyde (20 minutes at room temperature), permeabilized with PBST (0.5% Triton X-100 in PBS) for 15 minutes, and washed before blocking. Cells were blocked with 4% BSA for at least 30 minutes at room temperature and stained with anti-β-tubulin monoclonal antibodies (Sigma) at 400-fold dilution for 1 hour with Alexafluor 488-conjugated goat anti-mouse secondary antibodies (Invitrogen) at 300-fold dilution for 1 hour. DNA was detected with 4′,6-diamidino-2-phenylindole dihydrochloride (DAPI). Actin was detected with Phalloidin. High content screening (Perkin Elmer Operetta) was used to photograph stained cells at 40× magnification, and Columbus software was used for statistical analysis of the percentage of mitotic cells with monopolar spindles present in treated cells over the total number of cells in mitosis counted after 8 hours incubation with drugs.
# MCF-7 = test: Antiproliferation assay (Alamar Blue), MCF-7; type: cell-based; settings: Homo sapiens, MCF7; MCF-7, breast cancer; read-out: EC50 of YL001
# Description: as §1
# Sequence of Eg5 (P52732 whole entry): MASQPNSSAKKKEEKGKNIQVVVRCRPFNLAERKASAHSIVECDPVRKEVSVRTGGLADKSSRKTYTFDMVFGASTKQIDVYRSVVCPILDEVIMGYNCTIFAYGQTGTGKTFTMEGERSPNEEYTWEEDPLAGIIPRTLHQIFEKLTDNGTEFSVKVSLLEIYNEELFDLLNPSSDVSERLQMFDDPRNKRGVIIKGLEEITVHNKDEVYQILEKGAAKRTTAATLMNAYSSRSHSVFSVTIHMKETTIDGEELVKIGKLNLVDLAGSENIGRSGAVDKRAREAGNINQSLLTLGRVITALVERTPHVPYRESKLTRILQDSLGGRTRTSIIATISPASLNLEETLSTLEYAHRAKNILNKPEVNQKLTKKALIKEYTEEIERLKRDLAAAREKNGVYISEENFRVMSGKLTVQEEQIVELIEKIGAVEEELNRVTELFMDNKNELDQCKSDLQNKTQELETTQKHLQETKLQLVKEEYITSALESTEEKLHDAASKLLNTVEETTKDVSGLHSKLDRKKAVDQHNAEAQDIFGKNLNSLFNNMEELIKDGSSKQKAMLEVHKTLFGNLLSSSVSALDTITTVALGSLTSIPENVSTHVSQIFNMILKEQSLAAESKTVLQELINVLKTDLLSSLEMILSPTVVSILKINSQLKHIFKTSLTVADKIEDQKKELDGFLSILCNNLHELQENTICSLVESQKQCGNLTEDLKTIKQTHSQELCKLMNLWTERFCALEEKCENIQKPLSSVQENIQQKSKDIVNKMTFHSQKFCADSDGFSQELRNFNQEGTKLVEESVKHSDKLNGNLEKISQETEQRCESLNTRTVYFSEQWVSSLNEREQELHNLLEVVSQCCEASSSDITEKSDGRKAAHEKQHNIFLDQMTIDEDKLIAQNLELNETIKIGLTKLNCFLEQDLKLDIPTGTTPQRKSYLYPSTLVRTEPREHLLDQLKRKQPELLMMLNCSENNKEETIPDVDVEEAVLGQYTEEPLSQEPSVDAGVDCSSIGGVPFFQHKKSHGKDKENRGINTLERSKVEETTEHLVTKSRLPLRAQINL
smiles,measurement,setting,value
"Cc1ccc(-n2nnnc2/C(=C/N(C)C)C(=O)c2cccc(C(F)(F)F)c2)cc1 [YL001, (Z)-3-(dimethylamino)-2-(1-(p-tolyl)-1H-tetrazol-5-yl)-1-(3-(trifluoromethyl)phenyl)prop-2-en-1-one]",EC50,786-O,14.7 ± 0.62 µM
same,EC50,A549,22.8 ± 0.72 µM
same,maximal therapeutic dose,[1],200 mg/kg
same,EC50,K562,9.76 ± 0.52 µM
same,EC50,Eg5,1.18 µM
same,IC50,HeLa cells [2],0.124 µM
same,EC50,"HT1080; HT1080, fibrosarcoma",76.2 ± 0.77 µM
same,EC50,"HT1080; Homo sapiens, HT-1080, HT1080, fibrosarcoma",> 70 µM
same,EC50,[3],5 to 20 µM
same,adverse effects / toxicity,"B16 melanoma xenograft; 200 mg/kg i.p. daily for 10 days, body weight",no adverse effects were observed
same,minimum T/C ratio,"B16 melanoma xenograft; 200 mg/kg i.p. daily for 10 days, tumor volume",0.40
same,Medium survival time,"B16 melanoma xenograft; 200 mg/kg, B16 tumor-bearing mice",> 33 days
same,tumor growth inhibition,"B16 melanoma xenograft; xenograft mouse model, 200 mg/kg i.p. daily",60%
same,EC50,4T1/6TG,20 ± 0.5 µM
same,EC50,A2780/taxol,20.1 ± 0.68 µM
same,half-life,Pharmacokinetic study,5.3 h
same,EC50,CNE-2Z,5.94 ± 0.02 µM
same,EC50,HeLa cells [4],15.3 µM
same,EC50,MCF-7,14.9 ± 2.57 µM
